Source: US20100267561A1, “HERBICIDAL PYRIDAZINONE DERIVATIVES” (priority 2007, published 2010)

Legend:
Experiment in all cases: Test B pre-/postemergence plant response
Assay type in all cases: in vivo
[1] = tested on: johnsongrass (Sorghum halepense)
Outline: (§1)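 Seeds were sown and sprayed preemergence, while plants at 2 to 18 cm (1- to 4-leaf stage) got postemergence sprays. Compounds were formulated in a non-phytotoxic solvent mixture with surfactant. After 13 to 15 days in a greenhouse, injury was rated visually against untreated controls, 0 (no effect) to 100 (complete control).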

[2] = tested on: giant foxtail (Setaria faberii)
Outline: as §1

soybean (Glycine max) = tested on: soybean (Glycine max)
Outline: as §1

[3] = tested on: catchweed bedstraw (Galium aparine); details: Preemergence
Outline: as §1

[4] = tested on: bermudagrass (Cynodon dactylon)
Outline: as §1

[5] = tested on: goosegrass (Eleusine indica)
Outline: as §1

[6] = tested on: Italian ryegrass (Lolium multiflorum)
Outline: as §1

[7] = tested on: velvetleaf (Abutilon theophrasti)
Outline: as §1

[8] = tested on: large crabgrass (Digitaria sanguinalis)
Outline: as §1

[9] = tested on: lambsquarters (Chenopodium album)
Outline: as §1

[10] = tested on: morningglory (Ipomoea coccinea)
Outline: as §1

[11] = tested on: pigweed (Amaranthus retroflexus)
Outline: as §1

[12] = 8 g ai/ha, postemergence, 0-100 scale
[13] = 16 g ai/ha, postemergence, 0-100 scale
[14] = Postemergence, 31 g ai/ha, scale 0 to 100
[15] = Postemergence, 62 g ai/ha, scale 0 to 100, 0 no effect, 100 complete control
[16] = Preemergence, 8 g ai/ha, scale 0 to 100 (0 no effect, 100 complete control)
[17] = Preemergence, 31 g ai/ha, scale 0 to 100 (0 no effect, 100 complete control)
[18] = Preemergence, 62 g ai/ha, 0 to 100 scale, 0 no effect, 100 complete control
[19] = Preemergence, 16 g ai/ha, scale 0 to 100

COc1nn(C)c(=O)c(-n2nc(-c3ccc(Br)cc3)cc2C)c1O [Compound 82]
Johnsongrass plant response rating [1, 12]: 100
Johnsongrass plant response rating [1, 13]: 100
Plant response rating, Johnsongrass [1, 14]: 100
Plant response rating, Johnsongrass [1, 15]: 100
Johnsongrass plant response rating [1, 16]: 70
Plant response rating, Johnsongrass [1, 17]: 98
Plant response rating, Johnsongrass [1, 18]: 100
Johnsongrass plant response rating [1, 19]: 85
Foxtail, Giant plant response rating [2, 12]: 95
Foxtail, Giant plant response rating [2, 13]: 100
Plant response rating, Foxtail, Giant [2, 14]: 100
Plant response rating, Foxtail, Giant [2, 15]: 100
Foxtail, Giant plant response rating [2, 16]: 98
Plant response rating, Foxtail, Giant [2, 17]: 100
Plant response rating, Foxtail, Giant [2, 18]: 100
Foxtail, Giant plant response rating [2, 19]: 100
Soybean plant response rating (soybean (Glycine max); [12]): 0
Soybean plant response rating (soybean (Glycine max); [13]): 45
Plant response rating, Soybean (soybean (Glycine max); [14]): 55
Plant response rating, Soybean (soybean (Glycine max); [15]): 70
Soybean plant response rating (soybean (Glycine max); [16]): 0
Plant response rating, Soybean (soybean (Glycine max); [17]): 20
Plant response rating, Soybean (soybean (Glycine max); [18]): 100
Soybean plant response rating (soybean (Glycine max); [19]): 0
Plant response rating, Galium ([3]; 31 g ai/ha, scale 0 to 100 (0 no effect, 100 complete control)): 50
Plant response rating, Galium ([3]; 62 g ai/ha, 0 to 100 scale, 0 no effect, 100 complete control): 50
Bermudagrass plant response rating [4, 12]: 98
Bermudagrass plant response rating [4, 13]: 100
Plant response rating, Bermudagrass [4, 14]: 100
Plant response rating, Bermudagrass [4, 15]: 100
Bermudagrass plant response rating [4, 16]: 90
Bermudagrass plant response rating ([4]; Preemergence, 16 g ai/ha, scale 0 to 100 (0 no effect, 100 complete control)): 100
Plant response rating, Bermudagrass [4, 17]: 100
Plant response rating, Bermudagrass [4, 18]: 100
Goosegrass plant response rating [5, 12]: 60
Goosegrass plant response rating [5, 13]: 65
Plant response rating, Goosegrass [5, 14]: 85
Plant response rating, Goosegrass [5, 15]: 90
Goosegrass plant response rating [5, 16]: 95
Plant response rating, Goosegrass [5, 17]: 98
Plant response rating, Goosegrass [5, 18]: 100
Goosegrass plant response rating [5, 19]: 98
Ryegrass, Italian plant response rating [6, 12]: 98
Ryegrass, Italian plant response rating [6, 13]: 98
Plant response rating, Ryegrass, Italian [6, 14]: 100
Plant response rating, Ryegrass, Italian [6, 15]: 100
Ryegrass, Italian plant response rating [6, 16]: 40
Plant response rating, Ryegrass, Italian [6, 17]: 100
Plant response rating, Ryegrass, Italian [6, 18]: 100
Ryegrass, Italian plant response rating [6, 19]: 98
Velvetleaf plant response rating [7, 12]: 0
Velvetleaf plant response rating [7, 13]: 0
Plant response rating, Velvetleaf [7, 14]: 0
Plant response rating, Velvetleaf [7, 15]: 55
Velvetleaf plant response rating [7, 16]: 0
Plant response rating, Velvetleaf [7, 17]: 45
Plant response rating, Velvetleaf [7, 18]: 75
Velvetleaf plant response rating [7, 19]: 0
Crabgrass, Large plant response rating [8, 12]: 100
Crabgrass, Large plant response rating [8, 13]: 100
Plant response rating, Crabgrass, Large [8, 14]: 100
Plant response rating, Crabgrass, Large [8, 15]: 100
Crabgrass, Large plant response rating [8, 16]: 95
Plant response rating, Crabgrass, Large [8, 17]: 100
Plant response rating, Crabgrass, Large [8, 18]: 100
Crabgrass, Large plant response rating [8, 19]: 98
Lambsquarters plant response rating [9, 12]: 0
Lambsquarters plant response rating [9, 13]: 0
Plant response rating, Lambsquarters [9, 14]: 0
Plant response rating, Lambsquarters [9, 15]: 0
Lambsquarters plant response rating [9, 16]: 0
Plant response rating, Lambsquarters [9, 17]: 100
Plant response rating, Lambsquarters [9, 18]: 100
Lambsquarters plant response rating [9, 19]: 0
Morningglory plant response rating [10, 12]: 0
Morningglory plant response rating [10, 13]: 0
Plant response rating, Morningglory [10, 14]: 0
Plant response rating, Morningglory [10, 15]: 55
Morningglory plant response rating [10, 16]: 0
Plant response rating, Morningglory [10, 17]: 0
Plant response rating, Morningglory [10, 18]: 25
Morningglory plant response rating [10, 19]: 0
Pigweed plant response rating [11, 12]: 0
Pigweed plant response rating [11, 13]: 0
Plant response rating, Pigweed [11, 14]: 0
Plant response rating, Pigweed [11, 15]: 0
Pigweed plant response rating [11, 16]: 0
Plant response rating, Pigweed [11, 17]: 0
Plant response rating, Pigweed [11, 18]: 0
